Values quoted from earlier work in patent US20090312358A1, “METHOD FOR MANAGEMENT OF DIARRHEA” (TRUSTEES OF BOSTON UNIVERSITY, priority 2006, published 2009).
Like-named read-outs stand apart in the source and are kept apart here.

Legend:
[1] = compared to methylnaltrexone
[2] = for elimination half-life: in vivo; for time to peak plasma levels: after oral administration
[3] = for antidiarrheal potency relative to codeine: compared to codeine
[4] = repeated dosing in mice
[5] = oral

C[C@H]1CN(C[C@H](Cc2ccccc2)C(=O)NCC(=O)O)CC[C@@]1(C)c1cccc(O)c1 [alvimopan, Alvimopan]
potency in reversing the effects of morphine in the gastrointestinal tract relative to methylnaltrexone [1]: approximately 200 times

COc1ccc2c3c1O[C@H]1[C@@H](O)C=C[C@H]4[C@@H](C2)N(C)CC[C@@]341 [codeine]
elimination half-life [2]: ~3 h

N#CC(CCN1CCC(C(=O)O)(c2ccccc2)CC1)(c1ccccc1)c1ccccc1 [difenoxin]
antidiarrheal potency relative to codeine [3]: seventy-seven | antidiarrheal potency relative to diphenoxylate ([3]; compared to diphenoxylate): five | apparent half-life of difenoxin produced by de-esterification of diphenoxylate ([2]; healthy volunteers): approximately 50 minutes | elimination half-life [2]: 7 to 12 h

CCOC(=O)C1(c2ccccc2)CCN(CCC(C#N)(c2ccccc2)c2ccccc2)CC1 [diphenoxylate]
antidiarrheal potency relative to codeine [3]: fifteen | time to peak plasma levels [2]: approximately 2 hours

CN(C)C(=O)C(CCN1CCC(O)(c2ccc(Cl)cc2)CC1)(c1ccccc1)c1ccccc1 [loperamide, Loperamide]
development of tolerance to antimotility effects [4]: two | time to achieve symptomatic control of acute diarrhea ([5]; acute diarrhea): 9 to 20 h | time to peak plasma levels [2]: 3 to 5 h | elimination half-life [2]: 9 to 14 h

C[N@+]1(CC2CC2)CC[C@]23c4c5ccc(O)c4O[C@H]2C(=O)CC[C@@]3(O)[C@H]1C5 [methylnaltrexone, Methylnaltrexone]
time to restore normal bowel function ([5]; opioid bowel dysfunction): 4 to 7 h | elimination half-life [2]: 3 h | elimination half-life ([2]; listed as Methylnaltrexone): 2 to 3 h

CN1CC[C@]23c4c5ccc(O)c4O[C@H]2[C@@H](O)C=C[C@H]3[C@H]1C5 [morphine]
development of tolerance to antimotility effects [4]: not observed

C=C1CC[C@@]2(O)[C@H]3Cc4ccc(O)c5c4[C@@]2(CCN3CC2CC2)[C@H]1O5 [nalmefene, Nalmefene]
elimination half-life [2]: approximately 11 hours

O=C1CC[C@@]2(O)[C@H]3Cc4ccc(O)c5c4[C@@]2(CCN3CC2CC2)[C@H]1O5 [naltrexone, Naltrexone]
time to peak plasma levels [2]: about 1 hours
